In PubChem BioAssay AID1259407 (Chemical Carcinogenesis Research Information System (CCRIS), 2018):
Active and inactive are the calls of the source. No rule for the calls is given here.

System: CCRIS mutagenicity, Ames/micronucleus/aberration tests
Assay: CCRIS mutagenicity studies

For `CCCCC(CC)COC(=O)c1ccccc1C(=O)OCC(CC)CCCC` (stereo not drawn), the mutagenic call (Test System: AMES SALMONELLA TYPHIMURIUM, Strain/Indicator: TA1535, Metabolic Activation: RAT LIVER S-9, PHENOBARBITAL AND BETA-NAPHTHOFLAVONE, Method: PREINCUBATION) was “inactive; negative”, the mutagenic call (Test System: AMES SALMONELLA TYPHIMURIUM, Strain/Indicator: TA1535, Metabolic Activation: RAT, LIVER, S-9, AROCLOR 1254 (10%), Method: PREINCUBATION) was “inactive; negative” and the mutagenic call (Test System: AMES SALMONELLA TYPHIMURIUM, Strain/Indicator: TA1535, Metabolic Activation: RAT, LIVER, S-9, AROCLOR 1254, Method: STANDARD PLATE) was “inactive; negative”. For the same compound, the mutagenic call (Test System: AMES SALMONELLA TYPHIMURIUM, Strain/Indicator: TA1537, Metabolic Activation: HAMSTER, LIVER, S-9, AROCLOR 1254 (10%), Method: PREINCUBATION) was “inactive; negative”, the mutagenic call (Test System: AMES SALMONELLA TYPHIMURIUM, Strain/Indicator: TA1537, Metabolic Activation: NONE, Method: FLUCTUATION (MICROTITER)) was “inactive; negative” and the mutagenic call (Test System: AMES SALMONELLA TYPHIMURIUM, Strain/Indicator: TA1537, Metabolic Activation: NONE, Method: PREINCUBATION) was “inactive; negative”. For the same compound, the mutagenic call (Test System: AMES SALMONELLA TYPHIMURIUM, Strain/Indicator: TA1537, Metabolic Activation: NONE, Method: STANDARD PLATE) was “inactive; negative”, the mutagenic call (Test System: AMES SALMONELLA TYPHIMURIUM, Strain/Indicator: TA1537, Metabolic Activation: RAT LIVER S-9, AROCLOR 1254, Method: FLUCTUATION (MICROTITER)) was “inactive; negative” and the mutagenic call (Test System: AMES SALMONELLA TYPHIMURIUM, Strain/Indicator: TA1537, Metabolic Activation: RAT LIVER S-9, PHENOBARBITAL AND BETA-NAPHTHOFLAVONE, Method: PREINCUBATION) was “inactive; negative”. The mutagenic call (Test System: AMES SALMONELLA TYPHIMURIUM, Strain/Indicator: TA1537, Metabolic Activation: RAT, LIVER, S-9, AROCLOR 1254 (10%), Method: PREINCUBATION) was “inactive; negative”, the mutagenic call (Test System: AMES SALMONELLA TYPHIMURIUM, Strain/Indicator: TA1537, Metabolic Activation: RAT, LIVER, S-9, AROCLOR 1254, Method: STANDARD PLATE) was “inactive; negative” and the mutagenic call (Test System: AMES SALMONELLA TYPHIMURIUM, Strain/Indicator: TA1538, Metabolic Activation: NONE, Method: STANDARD PLATE) was “inactive; negative”. For the same compound, the mutagenic call (Test System: AMES SALMONELLA TYPHIMURIUM, Strain/Indicator: TA1538, Metabolic Activation: RAT, LIVER, S-9, AROCLOR 1254, Method: STANDARD PLATE) was “inactive; negative”, the mutagenic call (Test System: AMES SALMONELLA TYPHIMURIUM, Strain/Indicator: TA2638, Metabolic Activation: RAT LIVER S-9, PHENOBARBITAL AND 5,6-BENZOFLAVONE, Method: STANDARD PLATE) was “inactive; negative” and the mutagenic call (Test System: AMES SALMONELLA TYPHIMURIUM, Strain/Indicator: TA7001, Metabolic Activation: NONE, Method: FLUCTUATION (MICROTITER)) was “inactive; negative”. The mutagenic call (Test System: AMES SALMONELLA TYPHIMURIUM, Strain/Indicator: TA7001, Metabolic Activation: RAT LIVER S-9, AROCLOR 1254, Method: FLUCTUATION (MICROTITER)) was “inactive; negative”, the mutagenic call (Test System: AMES SALMONELLA TYPHIMURIUM, Strain/Indicator: TA7002, Metabolic Activation: NONE, Method: FLUCTUATION (MICROTITER)) was “inactive; negative” and the mutagenic call (Test System: AMES SALMONELLA TYPHIMURIUM, Strain/Indicator: TA7002, Metabolic Activation: RAT LIVER S-9, AROCLOR 1254, Method: FLUCTUATION (MICROTITER)) was “inactive; negative”. The mutagenic call (Test System: AMES SALMONELLA TYPHIMURIUM, Strain/Indicator: TA7003, Metabolic Activation: NONE, Method: FLUCTUATION (MICROTITER)) was “inactive; negative”, the mutagenic call (Test System: AMES SALMONELLA TYPHIMURIUM, Strain/Indicator: TA7003, Metabolic Activation: RAT LIVER S-9, AROCLOR 1254, Method: FLUCTUATION (MICROTITER)) was “inactive; negative” and the mutagenic call (Test System: AMES SALMONELLA TYPHIMURIUM, Strain/Indicator: TA7004, Metabolic Activation: NONE, Method: FLUCTUATION (MICROTITER)) was “inactive; negative”. The mutagenic call (Test System: AMES SALMONELLA TYPHIMURIUM, Strain/Indicator: TA7004, Metabolic Activation: RAT LIVER S-9, AROCLOR 1254, Method: FLUCTUATION (MICROTITER)) was “inactive; negative”, the mutagenic call (Test System: AMES SALMONELLA TYPHIMURIUM, Strain/Indicator: TA7005, Metabolic Activation: NONE, Method: FLUCTUATION (MICROTITER)) was “inactive; negative” and the mutagenic call (Test System: AMES SALMONELLA TYPHIMURIUM, Strain/Indicator: TA7005, Metabolic Activation: RAT LIVER S-9, AROCLOR 1254, Method: FLUCTUATION (MICROTITER)) was “inactive; negative”. The mutagenic call (Test System: AMES SALMONELLA TYPHIMURIUM, Strain/Indicator: TA7006, Metabolic Activation: NONE, Method: FLUCTUATION (MICROTITER)) was “inactive; negative”, the mutagenic call (Test System: AMES SALMONELLA TYPHIMURIUM, Strain/Indicator: TA7006, Metabolic Activation: RAT LIVER S-9, AROCLOR 1254, Method: FLUCTUATION (MICROTITER)) was “inactive; negative” and the mutagenic call (Test System: E. COLI, Strain/Indicator: WP2 (PKM101), Metabolic Activation: RAT LIVER S-9, PHENOBARBITAL, AND 5,6-BENZOFLAVONE, Method: STANDARD PLATE) was “inactive; negative”. For the same compound, the mutagenic call (Test System: E. COLI, Strain/Indicator: WP2 UVRA (PKM101), Metabolic Activation: RAT LIVER S-9, PHENOBARBITAL AND 5,6-BENZOFLAVONE, Method: STANDARD PLATE) was “inactive; negative”, the mutagenic call (Test System: E.COLI, Strain/Indicator: WP2UVRA, Metabolic Activation: NONE, Method: PREINCUBATION) was “inactive; negative” and the mutagenic call (Test System: E.COLI, Strain/Indicator: WP2UVRA, Metabolic Activation: RAT LIVER S-9, PHENOBARBITAL AND BETA-NAPHTHOFLAVONE, Method: PREINCUBATION) was “inactive; negative”. The mutagenic call (Test System: MOUSE LYMPHOMA, Strain/Indicator: L5178Y (TK+/+)/OUABAIN, Metabolic Activation: NONE, Method: SUSPENSION/PLATE) was “inactive; negative”, the mutagenic call (Test System: MOUSE LYMPHOMA, Strain/Indicator: L5178Y (TK+/+)/OUABAIN, Metabolic Activation: RAT LIVER S-9, AROCLOR 1254, Method: SUSPENSION/PLATE) was “inactive; negative” and the mutagenic call (Test System: MOUSE LYMPHOMA, Strain/Indicator: L5178Y (TK+/-)/TRIFLUROTHYMIDINE, Metabolic Activation: NONE, Method: SUSPENSION/PLATE) was “inactive; negative”. For the same compound, the mutagenic call (Test System: MOUSE LYMPHOMA, Strain/Indicator: L5178Y (TK+/-)/TRIFLUROTHYMIDINE, Metabolic Activation: RAT LIVER S-9, AROCLOR 1254, Method: SUSPENSION/PLATE) was “inactive; negative”, the mutagenic call (Test System: MOUSE LYMPHOMA, Strain/Indicator: L5178Y (TK+/TK-), Metabolic Activation: NONE, Method: SUSPENSION/PLATE) was “inactive; negative” and the mutagenic call (Test System: MOUSE LYMPHOMA, Strain/Indicator: L5178Y (TK+/TK-), Metabolic Activation: RAT, LIVER, S-9, AROCLOR 1254, Method: SUSPENSION/PLATE) was “active; positive”. The mutagenic call (Test System: MOUSE LYMPHOMA, Strain/Indicator: L5178Y (TK+/TK-), Metabolic Activation: RAT, LIVER, S-9, Method: SUSPENSION/PLATE) was “inactive; negative” and the mutagenic call (Test System: UDS RAT HEPATOCYTES, Strain/Indicator: THY INCORP, Metabolic Activation: NONE, Method: LIQUID SCINTILLATION COUNTING) was “active; positive”.
